This is an account of results in ChEMBL document CHEMBL5356935, “Discovery of rigid biphenyl Plasmodium falciparum DHFR inhibitors using a fragment linking strategy” (RSC Med Chem, 2023).

≈ marks a conversion by molar mass, not a printed value. Calls of active or inactive are those of the source. The calls are words filed in the database; no cut-off is given here. A value given as a limit tells only on which side of the number the result lay.

Data set [1] can be described thus: Kinetic solubility of the compound at pH 7.4 at 200 uM incubated for 2 hrs under shaking condition by HPLC analysis. It counts as physicochemical. The note with it: buffer, read-out: Kinetic_solubility.
The nature of data set [2]: Kinetic solubility of the compound at pH 6.5 at 200 uM incubated for 2 hrs under shaking condition by HPLC analysis. It counts as physicochemical. The note with it: buffer, read-out: Kinetic_solubility.
Data set [3] has as its system Plasmodium falciparum. The data set can be described thus: Antiplasmodial activity against PYR-resistant Plasmodium falciparum V1/S encoding QM DHFR infected in human erythrocytes assessed as inhibition of parasite growth by [3H]-hypoxanthine incorporation assay. Format: functional, organism-based. Conditions: Erythrocyte.
Data set [4] can be described thus: Cytotoxicity against African green monkey Vero cells assessed as cell growth inhibition incubated for 72 hrs by sulforhodamine B assay. It counts as toxicity, cell-based, Chlorocebus sabaeus. For orientation: The SRB assay estimates cell density from bound dye.
Data set [5] can be described thus: Metabolic stability in rat liver microsomes assessed as intrinsic clearance measured upto 60 mins in presence of NADPH by LC-MS/MS analysis. Format: ADME, Microsome. The note with it: read-out: CLH. On the technique in general: Liver microsomes are vesicles of endoplasmic reticulum, rich in cytochrome P450 enzymes.
The nature of data set [6]: Kinetic solubility of the compound at pH 2.0 at 200 uM incubated for 2 hrs under shaking condition by HPLC analysis. Format: physicochemical. Conditions: buffer, read-out: Kinetic_solubility.
For a further data set, the target named is T1, Dihydrofolate reductase (Homo sapiens, UniProt P00374).
T1 sequence (P00374 whole entry): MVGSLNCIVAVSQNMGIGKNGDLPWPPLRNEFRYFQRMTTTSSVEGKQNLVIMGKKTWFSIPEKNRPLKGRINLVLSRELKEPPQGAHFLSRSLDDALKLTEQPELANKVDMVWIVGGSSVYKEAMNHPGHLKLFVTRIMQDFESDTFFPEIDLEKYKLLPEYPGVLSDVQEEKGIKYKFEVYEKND
Nature of the data set: Inhibition of human DHFR using DHF as substrate assessed as inhibition constant in presence of NADPH by UV-Vis spectrometry analysis.

A short description of data set [7]: Half life in human. It counts as ADME.
Data set [8] can be described thus: Inhibition of Plasmodium falciparum DHFR N51I/C59R/S108N/I164L quadruple mutant using DHF as substrate assessed as inhibition constant in presence of NADPH by UV-Vis spectrometry analysis.
Data set [9] has as its system Plasmodium falciparum. The data set can be described thus: Antiplasmodial activity against PYR-sensitive Plasmodium falciparum TM4/8.2 encoding WT DHFR infected in human erythrocytes assessed as inhibition of parasite growth by [3H]-hypoxanthine incorporation assay. It counts as functional, organism-based. The note with it: TM4/8.2, Erythrocyte.
Data set [10] is described as follows: Distribution coefficient, log D of compound in n-octanol and saturated PBS at pH 7.4 at 100 uM incubated for 2 hrs under shaking condition by HPLC analysis. Format: physicochemical.
Data set [11] can be described thus: Metabolic stability in human liver microsomes assessed as intrinsic clearance measured upto 60 mins in presence of NADPH by LC-MS/MS analysis. It counts as ADME, Microsome. Conditions: read-out: CLH.
A short description of data set [12]: Kinetic solubility of the compound at pH 4.5 at 200 uM incubated for 2 hrs under shaking condition by HPLC analysis. It counts as physicochemical. The note with it: buffer, read-out: Kinetic_solubility.
The subject of data set [13] is Plasmodium falciparum. Nature of the data set: Inhibition of Plasmodium falciparum DHFR N51I/C59R/S108N/I164L quadruple mutant using DHF as substrate at 500 uM in presence of NADPH by UV-Vis spectrometry analysis relative to control.
Data set [14] deals with Bifunctional dihydrofolate reductase-thymidylate synthase (Plasmodium falciparum K1) (UniProt P13922). Nature of the data set: Inhibition of wild type Plasmodium falciparum DHFR using DHF as substrate at 500 uM in presence of NADPH by UV-Vis spectrometry analysis relative to control.
Data set [15] shares this target. The data set can be described thus: Binding affinity to Plasmodium falciparum DHFR assessed as binding constant (koff) by surface plasmon resonance analysis. On the technique in general: Surface plasmon resonance follows binding to a sensor surface in real time, without labels.
Data set [16] addresses T2, Dihydrofolate reductase (Homo sapiens) (UniProt P00374).
T2 sequence (whole entry): T1 sequence (P00374 whole entry)
Nature of the data set: Inhibition of human DHFR at 500 uM by UV-Vis spectrometry analysis.

Data set [17] addresses Bifunctional dihydrofolate reductase-thymidylate synthase (Plasmodium falciparum K1) (UniProt P13922). The data set can be described thus: Binding affinity to Plasmodium falciparum DHFR assessed as binding constant (kon) by surface plasmon resonance analysis.
The test system of data set [18] is Plasmodium falciparum. The data set can be described thus: Binding affinity to Plasmodium falciparum DHFR N51I/C59R/S108N/I164L quadruple mutant assessed as change in melting temperature in presence of NADPH by […] analysis.
For data set [19], the system named is Plasmodium falciparum. The data set can be described thus: Binding affinity to Plasmodium falciparum apo-DHFR N51I/C59R/S108N/I164L quadruple mutant assessed as change in melting temperature by […] analysis.
Data set [20] concerns the target Bifunctional dihydrofolate reductase-thymidylate synthase (Plasmodium falciparum K1) (UniProt P13922). The data set can be described thus: Inhibition of wild type Plasmodium falciparum DHFR using DHF as substrate at 500 uM in presence of NADPH by UV-Vis spectrometry analysis.
Data set [21] relates to Plasmodium falciparum. Nature of the data set: Inhibition of Plasmodium falciparum DHFR N51I/C59R/S108N/I164L quadruple mutant assessed as fold change in inhibition in presence of 2,4-diamino-6-ethylpyrimidin-5-ol.
Data set [22] has as its target Bifunctional dihydrofolate reductase-thymidylate synthase (Plasmodium falciparum K1) (UniProt P13922). The data set can be described thus: Binding affinity to Plasmodium falciparum DHFR assessed as faster binding and release kinetics by surface plasmon resonance analysis.

Chain of Bifunctional dihydrofolate reductase-thymidylate synthase (Plasmodium falciparum K1) (P13922 whole entry, looked up): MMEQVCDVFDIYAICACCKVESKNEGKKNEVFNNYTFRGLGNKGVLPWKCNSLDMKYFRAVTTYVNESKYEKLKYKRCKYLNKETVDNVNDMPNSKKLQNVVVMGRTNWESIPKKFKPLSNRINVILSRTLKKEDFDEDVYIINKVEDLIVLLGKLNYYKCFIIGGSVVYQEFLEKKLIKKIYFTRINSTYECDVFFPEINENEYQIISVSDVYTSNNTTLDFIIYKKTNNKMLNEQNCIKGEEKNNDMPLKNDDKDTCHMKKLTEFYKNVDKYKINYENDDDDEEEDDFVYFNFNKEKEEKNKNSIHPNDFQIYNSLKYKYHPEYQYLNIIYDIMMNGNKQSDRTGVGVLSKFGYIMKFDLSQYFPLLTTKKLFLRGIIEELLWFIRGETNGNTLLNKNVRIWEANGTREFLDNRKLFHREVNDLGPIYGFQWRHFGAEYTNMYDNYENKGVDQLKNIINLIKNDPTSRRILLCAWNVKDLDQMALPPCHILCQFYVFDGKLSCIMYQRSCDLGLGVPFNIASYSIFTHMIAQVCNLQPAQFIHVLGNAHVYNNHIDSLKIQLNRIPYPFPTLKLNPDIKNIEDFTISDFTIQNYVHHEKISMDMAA

The IC50 is the concentration needed to halve the response being measured. As usually defined, the Ki is a dissociation constant, usually derived from enzyme kinetics or from competition with a known ligand. What is called half-life is the time in which the quantity being followed falls by half. By logD is commonly meant the decadic logarithm of the distribution of all forms, ionised or not, between an organic phase and buffer at a given pH. On to `CCc1nc(N)nc(N)c1OCCCOc1ccccc1CCC(=O)O`, for which the solubility kinetic at 2 h, 200 µM in data set [1] turned out to be 201 µM (≈ 72.5 µg/mL); in data set [2] it was 204 µM (≈ 73.5 µg/mL); in data set [6], 207 µM (≈ 74.6 µg/mL); in data set [12], 200 µM (≈ 72 µg/mL). In addition, the IC50 in the data set with Plasmodium falciparum [3] was 0.056 µM; in the data set with Plasmodium falciparum [9], 0.005 µM. For the same molecule, the IC50 at 72 h in data set [4] was over 100 µM. Besides, the microsomal CLint in data set [5] and in data set [11] was under 3 µL/min/mg throughout. For the same molecule, the Ki on Dihydrofolate reductase amounted to 0.0174 µM; in data set [8], 0.00054 µM. Also, in [7], the half-life was under 20 h. The logD at 2 h, 100 µM in data set [10] was -0.095.
As usually defined, the inhibition is the share of the control response that was lost under treatment. In general, ΔTm refers to the change in melting temperature against a reference sample. As for `Cc1ccc(-c2ccc(C(=O)O)cc2)o1`, the results for the inhibition (with Plasmodium falciparum [13]; in data set [14]) were 23.1% and 27.4%, respectively. Besides, the K in [15] came out at 0.019 s⁻¹; in data set [17], 25.4 M⁻¹ s⁻¹. Further, in data set [16], the inhibition entry is “inactive”. Besides, the shift in melting temperature (ΔTm) in the data set on Plasmodium falciparum [18] was -2.3 °C.
As for `O=C(O)c1ccc(-c2ccccc2)cn1`, the inhibition in the data set with Plasmodium falciparum [13] was found to be 7%. Besides, the ΔTm with Plasmodium falciparum [19] is -1.2 °C. The K came to 0.037 s⁻¹ in data set [15] and 24.5 M⁻¹ s⁻¹ in data set [17]. For the same molecule, the inhibition entry in [20] and in data set [16] was “inactive” each time.
`O=C(O)c1cccc(-c2ccncc2)c1`: the inhibition with Plasmodium falciparum [13] came to 19.5%. For the same molecule, the inhibition entry in data set [20] and in data set [16] was “inactive” in each case. The K in data set [17] was found to be 6.41 M⁻¹ s⁻¹. In the data set on Plasmodium falciparum [18], the ΔTm stood at 0.8 °C.
On to `COc1ccccc1-c1ccc(C(=O)O)cc1`, for which the inhibition with Plasmodium falciparum [13] came out at 24%; in data set [14], 14.6%. Also, the fold change (FC) in the data set with Plasmodium falciparum [21] was determined as 2.7. Besides, the inhibition entry in data set [16] was “inactive”. The result in data set [22] was Active.
On to `O=C(O)c1ccc(-c2ccccc2F)o1`, for which the inhibition in the data set on Plasmodium falciparum [13] came out at 2.6%. Moreover, in the data set on Plasmodium falciparum [19], the ΔTm is -1.8 °C. Besides, the K turned out to be 0.001 s⁻¹ in data set [15] and 7.61 M⁻¹ s⁻¹ in data set [17]. Further, the inhibition result in [20] and in data set [16] was “inactive” throughout.
Take `COc1cccc(-c2ccc(C(=O)O)cc2)c1`: the inhibition with Plasmodium falciparum [13] turned out to be 45.8%; in data set [14], 37.8%. In the data set on Plasmodium falciparum [21], the fold change (FC) stood at 2. Besides, the inhibition entry in [16] was “inactive”. For the same molecule, the outcome in data set [22] was Active.
